Patent US8435982B2, “Pharmaceutical formulation containing lipophilic drugs and milk as a solubilizing/dispensing agent and method for the preparation thereof” (Pharmathen S.A., priority 2007, dated 2013)
≈ marks a conversion by molar mass, not a printed value. Where two headings read alike, the source gives them in different places.

Assays:
Format in all cases: physicochemical
[1] = Solubility studies in alkaline buffers; conditions: for solubility at 48 h: 25 °C, thermodynamic from solid
Description: Solubility studies were performed at 25° C. in various buffers. More specifically:
An excess quantity of mefenamic acid powder was added to a 25 ml flask containing 15 ml of the appropriate aqueous medium. The flasks were placed in a thermostated water bath at 25° C. under constant shaking rate of 100 rpm for 48 h. The filtrated samples of mefenamic acid were monitored at 285 nm. Calibration curves were performed for every buffer, prior to measurements.

[2] = Final pH of drug-buffer solution solubilized/dispersed in milk
Description: The appropriate buffer was added in milk gradually under magnetic stirring and the increase of the milk pH was measured. […] Subsequently, experiments were performed in order to evaluate if an active ingredient initially dissolved in buffer, when solubilized/dispersed in milk, is suitable for oral administration. […] The buffer volume was increased by 0.5 ml each time and the pH values after each addition were measured.

[3] = Stability studies of NSAID alkaline buffer solutions; conditions: for total amount of drug compared to the initial value: alkaline buffer solution pH 12
Description: The drugs were dissolved in the following buffers: 0.2 M NaH2PO4—NaOH pH 12 and 0.05 M glycine-NaOH pH 12. A weighted amount of drug, corresponding to its therapeutic dose, was dissolved in the appropriate volume of alkaline buffer. […] Also, the pH values of the aqueous alkaline NSAIDs solutions were measured before storage and at the predetermined time points.

Cc1cccc(Nc2ccccc2C(=O)O)c1C [Mefenamic acid]
solubility (FIG. 1) ([1]; 25° C., nominal pH range of 11-12, 0.2M NaH2PO4—NaOH buffer): greatly enhanced | Final pH ([2]; dose 50 mg, 10 mg/mL, 5 mL NaH2PO4/NaOH 0.2M (nominal pH=12) in 150 ml […] fat long duration milk): 6.81 | Final pH ([2]; dose 100 mg, 10 mg/mL, 10 mL NaH2PO4/NaOH 0.2M (nominal pH=12) in 150 ml […] fat long duration milk): 7.01 | Final pH ([2]; dose 500 mg, 25 mg/mL, 20 mL NaH2PO4/NaOH 0.2M (nominal pH=12) in 150 ml […] fat long duration milk): 7.73 | Final pH ([2]; dose 500 mg, 40 mg/mL, 12.5 mL NaH2PO4/NaOH 0.2M (nominal pH=12) in 150 ml […] fat long duration milk): 7.35

Cc1cnc(NC(=O)C2=C(O)c3ccccc3S(=O)(=O)N2C)s1 [Meloxicam]
solubility at 48 h ([1]; aqueous buffer, buffer glycine/NaOH at nominal pH=12, read-out: solubility): 15.4 mg/mL (≈ 43.8 mM)

CS(=O)(=O)Nc1ccc([N+](=O)[O-])cc1Oc1ccccc1 [Nimesulide]
total amount of drug compared to the initial value ([3]; accelerated stability studies, 30° C.): 99.7-100.2% | total amount of drug compared to the initial value ([3]; accelerated stability studies, 40° C.): 101-118% | change of pH (compared to the initial value) ([3]; both long term and accelerated studies, all three temperatures): 98.8-100.2% | % change of drug amount ([3]; long term and accelerated stability studies): within acceptable ranges | total amount of drug compared to the initial value ([3]; long term studies at 25° C. (3 and 6 months)): 96.5-107%

CN1C(C(=O)Nc2ccccn2)=C(O)c2sccc2S1(=O)=O [Tenoxicam]
solubility at 48 h ([1]; phosphate buffer, aqueous buffer, buffer 0.1M NaH2PO4/NaOH at nominal pH=12, read-out: solubility): 14.3 mg/mL (≈ 42.5 mM)

Cc1c(Cl)cccc1Nc1ccccc1C(=O)O [Tolfenamic acid]
solubility at 48 h ([1]; pH 12, aqueous buffer): 35.1 mg/mL (≈ 134 mM) | Final pH ([2]; dose 100 mg, 10 mg/mL, 10 mL NaH2PO4/NaOH 0.2M (nominal pH=12) in 150 ml […] fat long duration milk (tolfenamic acid)): 7.42 | Final pH ([2]; dose 100 mg, 20 mg/mL, 5 mL NaH2PO4/NaOH 0.1M (nominal pH=12) in 150 ml […] fat long duration milk): 6.75 | Final pH ([2]; dose 100 mg, 20 mg/mL, 5 mL NaH2PO4/NaOH 0.2M (nominal pH=12) in 150 ml […] fat long duration milk): 7.03 | Final pH ([2]; dose 200 mg, 20 mg/mL, 10 mL NaH2PO4/NaOH 0.2M (nominal pH=12) in 150 ml […] fat long duration milk): 7.34 | Final pH ([2]; dose 300 mg, 25 mg/mL, 12 mL NaH2PO4/NaOH 0.2M (nominal pH=12) in 150 ml […] fat long duration milk): 7.40
